Patent publication US9114149B2, “[CU(thp)4]n[X]-n compounds for the treatment of a broad range of human solid tumors, including refractory tumors” (Universita Degli Studi Di Padova, priority 2011, dated 2015)
Marks after values point to notes of the source that are not given here.

What was measured:
Solubility in water = assay type: physicochemical
BALB/c mice = test: Acute toxicity tests in healthy BALB/c mice; assay type: in vivo; details: for LD50: BALB/c mice, observed 24 hrs
Protocol: The acute toxicity was assessed by treating BALB/c or C57BL mice with a single intraperitoneal (i.p.) or endovenous (e.v.) administration of different amounts, i.e. 3.125, 6.25, 12.5, 25, 50, 100 and 200 mg/kg of tested compounds.
To preliminarily establish the toxicity profile of CP, acute and repeat-dose toxicity studies were performed in BALB/c mice and in C57BL mice.

[1] = system: human cancer cell lines derived from solid tumors; test: MTT cytotoxicity, whole panel of human solid tumor cell lines; assay type: cell-based; details: Table 1 panel, maximum
Text: The in vitro antitumor activity of CP had been deeply evaluated in several human cancer cell lines by in vitro cytotoxicity assays. CP cytotoxicity has been detected in a large panel of human cell lines derived from a wide variety of solid tumors, including refractory tumors. In Table 1, the cytotoxicity parameters IC50 (that is the median growth inhibitory concentrations calculated from dose-survival curves via MTT test) are tabulated.
Cell lines representative of lung (H157, U1810, U1285, Calu-1), pancreas (MIA PaCa-2, BxPC-3, AsPC-1, Capan-1), liver (Huh-7, Hep 3B, SK-Hep-1), oesophagus (OE33, OE21), oesophagus/gastric cardia (OE19), stomach (BGC-823, AGS), colon (HCT-116, T84, COLO 205), breast (MDA-MB-231, SK-BR-3), cervix (CaSki, C-33 A) ovarian (A2780, SK-OV-3, IGROV1), prostate (LnCaP, PC-3) cancers along with melanoma (MEWO, G361, C-32), neuroblastoma (SH-SY5Y, SK-N-AS, IMR-32) and osteosarcoma (U-2 OS, MG-63) have been treated with increasing concentration of CP for 72 hrs.
In colon, liver, brain, ovary and prostate cell line panels IC50 values in the submicromolar range have been obtained.

[2] = system: CDDP resistant and OXP resistant human cancer cells
[3] = Tissue distribution (Cu content) in LLC bearing mice; assay type: in vivo, C57BL mice; details: 50 mg/kg i.p., 24 hrs; Cu by atomic absorption, treated versus control (FIG. 4)
Protocol: Mice were inoculated […]. on the right flank with 2×10^6 LLC cells. After 10 days, CP was administered i.p. at a dose of 50 mg/kg. The mice were sacrificed after 24 hours and tumor (indicated with 1), brain (indicated with 2), spleen (indicated with 3), kidney (indicated with 4), intestine (indicated with 5), liver (indicated with 6) and stomach (indicated with 7) were excised. Tissues were washed in ice-cold saline and weighed after removing excess fluid. All samples were mineralized in HNO3 and Cu content in each sample was measured by atomic absorption spectrophotometry. The Y axis indicates the ratio of copper amount in treated versus control mice.
To assess the potential selectivity to the solid tumor mass, tissue distribution of CP was investigated in LLC bearing C57BL mice. Biodistribution studies are very helpful in assessing the ability of a molecule to traverse multilayers of cells. Chemotherapy of solid tumors often fails because adequate cytotoxic concentrations are not achieved due to poor penetration and non-uniform distribution of the drug.
To assess the potential selectivity to the solid tumor mass, tissue distribution of [Cu(thp)4][PF6] (CP) was investigated in LLC bearing C57BL mice. On day 10 after tumor implantation, mice were treated with a single i.p. injection of 50 mg/kg of CP.

With `F[P-](F)(F)(F)(F)F.OC[P+](CO)(CO)[Cu-3]([P+](CO)(CO)CO)([P+](CO)(CO)CO)[P+](CO)(CO)CO` [CP, [Cu(thp)4][PF6]] the solubility in water (Solubility in water) was “excellent solubility in water”, the “LD50 relative to that recorded with CDDP” value (BALB/c mice; BALB/c and C57BL mice (Table 5)) was “about one order of magnitude higher” and the LD50 (BALB/c mice; single e.v. administration) was 135^b mg/kg. The LD50 (BALB/c mice; single i.p. administration) was 150^a mg/kg, the “fold more cytotoxic than CDDP” value [1] was “up to 50 fold” and the “fold more cytotoxic than OXP” value [1] was no more than 30 fold. For the same compound, the “IC50 fold lower than the reference metallodrugs” value ([2]; Table 2 cell lines, maximum) was “up to 15 fold”, the “antitumor activity levels on sensitive versus resistant cell lines” value ([2]; sensitive and resistant cell line pairs) was “very similar” and the “CP concentration in solid tumor mass” value [3] was “highest CP concentration”. The “copper drug in brain” value [3] was “No copper drug was detected” and the “copper drug in intestinal tract” value [3] was “very little”.
